Assay results: ChEMBL document CHEMBL4417631, “Oral peptide inhibitors of interleukin-23 receptor and their use to treat inflammatory bowel diseases” (2017)
Where a SMILES comes first, the peptide text is derived from it. [ ]: non-standard residue; d: D form. hLeu = CC(C)CC[C@H](N)C(=O)O

Columns and labels:
[1] = Inhibition of interleukin-23 binding to rat interleukin-23 receptor incubated for 2 hrs by competitive binding ELISA
[2] = Half life in simulated intestinal fluid at 20 uM by LC-MS/MS analysis; type: ADME
Interleukin-23 receptor [3] = biological target: T1, Interleukin-23 receptor (Homo sapiens, UniProt Q5VWK5); assay: Inhibition of interleukin-23 binding to human interleukin-23 receptor incubated for 2 hrs by competitive binding ELISA
T1 sequence (Q5VWK5 whole entry): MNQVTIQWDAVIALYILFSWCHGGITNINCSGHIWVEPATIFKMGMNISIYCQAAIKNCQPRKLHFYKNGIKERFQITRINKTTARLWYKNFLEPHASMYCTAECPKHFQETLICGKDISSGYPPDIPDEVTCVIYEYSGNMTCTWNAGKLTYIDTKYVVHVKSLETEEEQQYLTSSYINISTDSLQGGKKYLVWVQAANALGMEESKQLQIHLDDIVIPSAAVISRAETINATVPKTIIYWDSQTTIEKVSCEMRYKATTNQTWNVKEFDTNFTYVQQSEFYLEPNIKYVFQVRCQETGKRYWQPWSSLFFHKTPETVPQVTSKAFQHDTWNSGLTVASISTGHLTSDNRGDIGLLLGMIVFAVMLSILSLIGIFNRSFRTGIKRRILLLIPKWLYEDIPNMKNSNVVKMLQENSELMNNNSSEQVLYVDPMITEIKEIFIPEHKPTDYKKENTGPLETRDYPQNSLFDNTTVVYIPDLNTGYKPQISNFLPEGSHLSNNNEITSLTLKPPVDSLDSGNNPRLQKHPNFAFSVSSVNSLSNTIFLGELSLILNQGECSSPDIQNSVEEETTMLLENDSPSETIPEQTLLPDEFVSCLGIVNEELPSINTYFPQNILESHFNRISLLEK

Interleukin-23 receptor [4] = biological target: T1, Interleukin-23 receptor; assay: Inhibition of interleukin-23 receptor in human DB cells assessed as reduction in IL-23-stimulated STAT3 phosphorylation incubated for 30 mins by HTRF assay; type: cell-based

Row | Structure (SMILES) | IC50 [1] | half-life at 20 µM [2] | IC50 (Interleukin-23 receptor [3]) | IC50 (Interleukin-23 receptor [4])
1 | CC(=O)N[C@@H](CS)C(=O)N[C@@H](CCC(N)=O)C(=O)N[C@H](C(=O)N[C@@H](Cc1c[nH]c2ccccc12)C(=O)N[C@@H](CCC(N)=O)C(=O)N[C@@H](CS)C(=O)N[C@@H](Cc1ccc(O)cc1)C(=O)N[C@@H](Cc1ccc(-c2ccccc2)cc1)C(=O)N[C@@H](CCC(C)C)C(=O)N[C@@H](CCC(=O)O)C(=O)N[C@@H](CC(N)=O)C(=O)NCC(N)=O)[C@@H](C)O | 51 nM | – | – | –
2 | CC(=O)N[C@@H](CS)C(=O)N[C@@H](CCC(N)=O)C(=O)N[C@H](C(=O)N[C@@H](Cc1c[nH]c2ccccc12)C(=O)N[C@@H](CCC(N)=O)C(=O)N[C@@H](CS)C(=O)N[C@@H](Cc1ccc(O)cc1)C(=O)N[C@@H](Cc1c[nH]c2ccccc12)C(=O)N[C@@H](CCC(C)C)C(=O)N[C@@H](CCC(=O)O)C(=O)N[C@@H](CCC(=O)O)C(=O)NCC(N)=O)[C@@H](C)O (Ac-CQTWQCYW[hLeu]EEG-NH2) | 53 nM | – | – | –
3 | CC(=O)N[C@H]1CCSC[C@@H](C(=O)N[C@@H](Cc2ccc(O)cc2)C(=O)N[C@@H](Cc2c[nH]c3ccccc23)C(=O)N[C@@H](CCC(C)C)C(=O)N[C@@H](CCC(=O)O)C(=O)N[C@@H](CC(N)=O)C(=O)NCC(N)=O)NC(=O)[C@H](CCC(N)=O)NC(=O)[C@H](Cc2c[nH]c3ccccc23)NC(=O)[C@H]([C@@H](C)O)NC(=O)[C@H](CCC(N)=O)NC1=O | – | < 1 h | 25 to 100 nM | 10 to 25 nM
4 | CC(=O)N[C@@H](CS)C(=O)N[C@@H](CCCNC(=N)N)C(=O)N[C@H](C(=O)N[C@@H](Cc1c[nH]c2ccccc12)C(=O)N[C@@H](CCC(N)=O)C(=O)N[C@@H](CS)C(=O)N[C@@H](Cc1ccc(O)cc1)C(=O)N[C@@H](Cc1c[nH]c2ccccc12)C(=O)N[C@@H](CC(C)C)C(=O)N[C@@H](CCCNC(=N)N)C(=O)N[C@@H](CC(C)C)C(=O)NCC(=O)N[C@@H](CC(=O)O)C(=O)N[C@@H](CCC(=O)O)C(=O)NCC(N)=O)[C@@H](C)O (Ac-CRTWQCYWLRLGDEG-NH2) | 483 nM | – | – | –
5 | CC(=O)N[C@@H](CS)C(=O)N[C@@H](CO)C(=O)N[C@H](C(=O)N[C@@H](Cc1c[nH]c2ccccc12)C(=O)N[C@@H](CCC(=O)O)C(=O)N[C@@H](CS)C(=O)N[C@@H](Cc1ccc(O)cc1)C(=O)N[C@@H](Cc1c[nH]c2ccccc12)C(=O)N[C@@H](Cc1cnc[nH]1)C(=O)N[C@H](C(=O)N[C@@H](Cc1ccc(O)cc1)C(=O)NCC(N)=O)[C@@H](C)O)[C@@H](C)O | 286 nM | – | – | –
6 | CC(=O)N[C@@H](CC(C)C)C(=O)N[C@@H](CS)C(=O)N[C@@H](CCC(N)=O)C(=O)N[C@H](C(=O)N[C@@H](Cc1c[nH]c2ccccc12)C(=O)N[C@@H](CCC(N)=O)C(=O)N[C@@H](CS)C(=O)N[C@@H](Cc1ccc(O)cc1)C(=O)N[C@@H](Cc1c[nH]c2ccccc12)C(=O)N[C@@H](CCC(C)C)C(=O)N[C@@H](CCC(=O)O)C(=O)N[C@@H](CC(N)=O)C(=O)NCC(N)=O)[C@@H](C)O | 26 nM | – | – | –
7 | CC(=O)N[C@H]1CCSC[C@@H](C(=O)N[C@@H](Cc2ccc(OCCN)cc2)C(=O)N[C@@H](Cc2ccc3ccccc3c2)C(=O)N[C@@H](CCCN)C(=O)N[C@@H](CN)C(=O)N[C@@H](CC(N)=O)C(=O)NCC(N)=O)NC(=O)[C@H](CCC(N)=O)NC(=O)[C@H](Cc2c[nH]c3ccccc23)NC(=O)[C@H]([C@@H](C)O)NC(=O)[C@H](CCC(N)=O)NC1=O | – | < 1 h | 25 to 100 nM | 25 to 100 nM
8 | CC(=O)N[C@@H](CS)C(=O)N[C@@H](CCC(N)=O)C(=O)N[C@H](C(=O)N[C@@H](Cc1c[nH]c2ccccc12)C(=O)N[C@@H](CCC(N)=O)C(=O)N[C@@H](CS)C(=O)N[C@@H](Cc1ccc(O)cc1)C(=O)N[C@@H](Cc1cccc2ccccc12)C(=O)N[C@@](C)(CC(C)C)C(=O)N[C@@H](CCC(=O)O)C(=O)N[C@@H](CC(N)=O)C(=O)NCC(N)=O)[C@@H](C)O | 67 nM | – | – | –
9 | CC(=O)N[C@@H](CS)C(=O)N[C@@H](CCC(N)=O)C(=O)N[C@H](C(=O)N[C@@H](Cc1c[nH]c2ccccc12)C(=O)N[C@@H](CCC(N)=O)C(=O)N[C@@H](CS)C(=O)N[C@@H](Cc1ccc(O)cc1)C(=O)N[C@@H](Cc1c[nH]c2ccccc12)C(=O)N[C@@H](Cc1cccnc1)C(=O)N[C@@H](CCC(=O)O)C(=O)N[C@@H](CC(N)=O)C(=O)NCC(N)=O)[C@@H](C)O | 20 nM | – | – | –
10 | CC(=O)N[C@@H](CS)C(=O)N[C@@H](CCC(N)=O)C(=O)N[C@H](C(=O)N[C@@H](Cc1c[nH]c2ccccc12)C(=O)N[C@@H](CCC(N)=O)C(=O)N[C@@H](CS)C(=O)N[C@@H](Cc1ccc(O)cc1)C(=O)N[C@@H](Cc1c[nH]c2ccccc12)C(=O)NC(C)(C)C(=O)N[C@@H](CCC(=O)O)C(=O)N[C@@H](CC(N)=O)C(=O)NCC(N)=O)[C@@H](C)O | 34 nM | – | – | –
11 | CC(=O)NCCCC[C@H](NC(=O)[C@](C)(CCCCN)NC(=O)[C@H](Cc1ccc2ccccc2c1)NC(=O)[C@H](Cc1ccc(Cl)c(Cl)c1)NC(=O)[C@@H]1CSCC[C@H](NC(C)=O)C(=O)N[C@@H](CCC(N)=O)C(=O)N[C@@H]([C@@H](C)O)C(=O)N[C@@H](Cc2c[nH]c3ccccc23)C(=O)N[C@@H](CCC(N)=O)C(=O)N1)C(=O)N[C@@H](CC(N)=O)C(=O)NCC(N)=O | – | 2 to 3 h | 100 to 1000 nM | 25 to 100 nM
12 | CC(=O)NCCCC[C@H](NC(=O)[C@H](CCCN)NC(=O)[C@H](Cc1ccc2ccccc2c1)NC(=O)[C@H](Cc1ccc(OCCN)cc1)NC(=O)[C@@H]1CSCC[C@H](NC(C)=O)C(=O)N[C@@H](CCC(N)=O)C(=O)N[C@@H]([C@@H](C)O)C(=O)N[C@@H](Cc2c[nH]c3ccccc23)C(=O)N[C@@H](CCC(N)=O)C(=O)N1)C(=O)N[C@@H](CC(N)=O)C(=O)NCC(N)=O | – | < 1 h | 10 to 25 nM | 10 to 25 nM
13 | CC(=O)N[C@H]1CCSC[C@@H](C(=O)N[C@@H](Cc2ccc(OCCN)cc2)C(=O)N[C@@H](Cc2c[nH]c3ccccc23)C(=O)N[C@@H](CCCN)C(=O)N[C@@H](CCC(=O)O)C(=O)N[C@@H](CC(N)=O)C(=O)NCC(N)=O)NC(=O)[C@H](CCC(N)=O)NC(=O)[C@H](Cc2c[nH]c3ccccc23)NC(=O)[C@H]([C@@H](C)O)NC(=O)[C@H](CCC(N)=O)NC1=O | – | < 1 h | 25 to 100 nM | –

Second part, the molecule after the results:

Row | IC50 [1] | half-life at 20 µM [2] | IC50 (Interleukin-23 receptor [3]) | IC50 (Interleukin-23 receptor [4]) | Structure (SMILES)
14 | 79 nM | – | – | – | CC(=O)N[C@@H](CS)C(=O)N[C@@H](CC(N)=O)C(=O)N[C@H](C(=O)N[C@@H](Cc1c[nH]c2ccccc12)C(=O)N[C@@H](CCC(N)=O)C(=O)N[C@@H](CS)C(=O)N[C@@H](Cc1ccc(O)cc1)C(=O)N[C@@H](Cc1c[nH]c2ccccc12)C(=O)N[C@@H](CCCNC(=N)N)C(=O)N[C@H](C(=O)N[C@@H](Cc1ccccc1)C(=O)NCC(=O)NCCOCC(=O)N[C@H](CCCCN)C(N)=O)C(C)C)[C@@H](C)O
15 | 33 nM | – | – | – | CC(=O)N[C@@H](CS)C(=O)N[C@@H](C)C(=O)N[C@@H](CC(=O)O)C(=O)N[C@@H](Cc1c[nH]c2ccccc12)C(=O)N[C@H](C(=O)N[C@@H](CS)C(=O)N[C@@H](Cc1ccc(O)cc1)C(=O)N[C@@H](Cc1c[nH]c2ccccc12)C(=O)N[C@@H](CCCNC(=N)N)C(=O)N[C@@H](CCCCN)C(=O)N[C@@H](Cc1ccccc1)C(=O)NCC(=O)NCCC(=O)N[C@H](CCCCN)C(N)=O)C(C)C
16 | 276 nM | – | – | – | C[C@@H](O)[C@H](NC(=O)[C@H](CCC(N)=O)NC(=O)[C@@H](N)CS)C(=O)N[C@@H](Cc1c[nH]c2ccccc12)C(=O)N[C@@H](CCC(N)=O)C(=O)N[C@@H](CS)C(=O)N[C@@H](Cc1ccc(O)cc1)C(=O)N[C@@H](Cc1c[nH]c2ccccc12)C(=O)N[C@@H](CCCN)C(=O)N[C@@H](CN)C(=O)N[C@@H](Cc1ccccc1)C(=O)NCC(=O)NCCOCC(=O)N[C@H](CCCCN)C(N)=O
17 | 182 nM | – | – | – | CC(=O)N[C@@H](CS)C(=O)N[C@@H](CCC(N)=O)C(=O)N[C@H](C(=O)N[C@@H](Cc1c[nH]c2ccccc12)C(=O)N[C@@H](CCC(N)=O)C(=O)N[C@@H](CS)C(=O)N[C@@H](Cc1ccc(O)cc1)C(=O)N[C@@H](Cc1c[nH]c2ccccc12)C(=O)N[C@@H](CCC(C)C)C(=O)N[C@@H](CCC(=O)O)C(=O)N[C@@H](CC(N)=O)C(=O)N[C@@H](Cc1ccccc1)C(N)=O)[C@@H](C)O
18 | 778 nM | – | – | – | CC(=O)N[C@@H](CS)C(=O)N[C@@H](CCCNC(=N)N)C(=O)N[C@H](C(=O)N[C@@H](Cc1c[nH]c2ccccc12)C(=O)N[C@@H](CCC(N)=O)C(=O)N[C@@H](CS)C(=O)N[C@@H](Cc1ccc(O)cc1)C(=O)N[C@@H](Cc1c[nH]c2ccccc12)C(=O)N[C@@H](CO)C(=O)N[C@@H](CCC(=O)O)C(=O)N[C@@H](Cc1ccccc1)C(=O)NCC(=O)N[C@H](C(=O)NCC(=O)N[C@@H](CCC(=O)O)C(N)=O)[C@@H](C)O)[C@@H](C)O (Ac-CRTWQCYWSEFGTGE-NH2)
19 | 51 nM | – | – | – | CC(=O)N[C@@H](CS)C(=O)N[C@@H](CCN)C(=O)N[C@H](C(=O)N[C@@H](Cc1c[nH]c2ccccc12)C(=O)N[C@@H](CCC(N)=O)C(=O)N[C@@H](CS)C(=O)N[C@@H](Cc1ccc(O)cc1)C(=O)N[C@@H](Cc1c[nH]c2ccccc12)C(=O)N[C@@H](CCCNC(=N)N)C(=O)N[C@H](C(=O)N[C@@H](Cc1ccccc1)C(=O)NCC(=O)NCCOCC(=O)N[C@H](CCCCN)C(N)=O)C(C)C)[C@@H](C)O
